# From US7691387B2, “Cinnamomi and poria composition, method to prepare same and uses thereof” (Jiangsu Kanion Pharmaceutical Co., Ltd, priority 2000, dated 2010)
# Where two headings read alike, the source gives them in different places.
# Legend:
# [1] = system: uterine smooth muscle induced by oxytocin; assay: Contraction of uterine smooth muscle induced by oxytocin; parameters: species or system Wister rats; contraction frequency: unit not given here; settings: for contraction frequency: oxytocin 10 mu/ml alone; for contraction activity / contraction activity, controlling % / contraction frequency, controlling % / contraction range / contraction range, controlling %: oxytocin alone
# Method: (§1) Twenty-four hours prior to the experiment, intramuscularly inject non-pregnant female rats with a 0.3 mg/kg weight-dose of Dihydrotheelin. The effect artificially puts them in estrus period so as to increase their sensitivity to the CCP. Decapitate the rats, rapidly paunch, take out the uterus and remove the fat. Cut the uterus in 2 cm of length and put it directly in the homothermic flume with 9 ml of the Locke's solution. One end of the uterus must be fixed on the crotchet of the L shaped ventilating pipe and the other end connected to the Muscle Tension Transducer. Keep the temperature of the homothermic flume at 32° C. Continuously emit oxygen into the fume, at least 60-80 bladders per minute and add in 1 ml of the previous solution with a different concentration. After recording a segment of normal contraction curve, observe the different phases before-and-after administering the drug. Respectively, record the contraction frequency and range. Observe from 1 to 10, 10 to 20, and 20 to 30 minutes before-and-after adding the drug solution. Count the uterine activity, and record data between control groups before-and-after administering the drug.
# Observe CCP's effect in smooth muscle contraction of rats' extracorporeal uterine induced by oxytocin. Respectively, record the contraction frequency and range. Observe from 1 to 10, 10 to 20, and 20 to 30 minutes before-and-after adding the drug solution. Count the uterine activity and the inhibitory percentage. Record data as previously done.
# Animals' Grouping: randomly divide Wister female rats' extra-corporeal uteruses into normal saline control group (NSG) and CCP's group. The CCP's group is formed by 4 subgroups with seven uteruses each. The dose of CCP's extract is respectively 5.4, 2.7, 1.3, and 0.6 mg/ml.
# Results: after adding 10 mu/ml oxytocin to the normal uterine smooth muscle there is an increase of the contraction frequency and the uterine activity. The contraction range is also affected reaching its peak for about 10 min to then stabilize on the level. After 40 minutes, the effect gradually drops. After the oxytocin reacts for 10 minutes, add in a different dose of CCP's extract, and compare the possible differences between the CCP's group and the oxytocin's group. A 5.4, 2.7 mg/ml dose of CCP's extract can control the increase of uterine activity induced by oxytocin, and mainly reduce contraction frequency of uterine smooth muscle (See Table 8 and 13).
# golden staphylococcus = settings: cited from earlier work
# streptococcus faecalis = settings: cited from earlier work
# coliform = settings: cited from earlier work
# bacillus subtilis = settings: cited from earlier work
# tinea germ between toes = settings: cited from earlier work
# [2] = system: blood pressure of anaesthetized dog; settings: mainline 80-120 mg/kg; cited from earlier work
# [3] = system: rheumatism, stomachache, other pains, eczema, dermatitis; settings: cited from earlier work
# [4] = cited from earlier work
# [5] = system: rats' Whole Blood Ratio Viscosity; assay: Whole Blood Ratio Viscosity of rats; type: in vivo, Wister rats; settings: 0.2 g/kg, 5 days
# Method: Drug dispensation: put a 12.5 g extract of CCP in a 100 ml solution of normal saline and mix adequately. The drug concentration is 0.125 g/ml (containing 0.5 g/ml of crude drugs). Put a 25 extract of CCP in 100 ml of normal saline. The drug concentration is 0.25 g/ml (containing […] of crude drugs). Put a 50 extract of CCP in a 100 ml of normal saline and mix adequately. The drug concentration is 0.5 g/ml (containing 2 g/ml crude drugs).
# Persantine: put 2 in normal saline and mix adequately. The drug concentration will be 20 mg/ml.
# Experimental processing: Randomly divide male Wister rats weighing 250 to 300 g into five groups with eight rats in each group. Low, medium and high dose groups can take the extract of CCP in a concentration of 10 ml/kg. The concentration of crude drugs is 5 g/kg, 10.0 g/kg and 20 g/kg respectively. The control group takes normal saline of the same volume; positive medicine group takes 0.2 g/kg, which is 10 ml/kg of persantine. The drug must be administered once a day for five consecutive days. After an hour and a half of administering the drug on the fifth day, lightly anaesthetize the […] with ether. Record 40 test tubes, and put 0.1 ml heparin in each. Take blood from the abdominal aorta of the […] and fill each tube with 1 ml of blood. Then use XN-5 Type Blood Viscometer to determine the Whole Blood Ratio Viscosity.
# mice bone marrow cells = assay: Micronucleus test; type: in vivo, ICR mouse
# Method: 30 mice were randomly divided into 5 groups, each group contained 6 animals. Three of the groups were drug-groups and animals in them were given to CCP by gastric gavage at doses of 2.5 g/kg/day, 1.25 g/kg/day and 0.625 g/kg/day for 2 days. (LD50 of CCP from an acute toxicity test was 5 g/Kg, we adopted a half dose for our study). The fourth group is given to normal saline (0.5 ml/mice) as a negative control group. The last group was given to cyclophosphamide(CP) at 40 mg/Kg via abdominal cavity injection as a positive control group.
# Animals were killed 24 hours after administration. Both femurs of the mice were taken for sampling. Femurs were pressed to move out the marrow, with a drop of calf serum added to it, smear the marrow on a plate. After the smeared plate was fixed in the solution of methyl for 10 minutes, it was dyed with the Giemsa's method and observed under the oil lens of a microscope. In the principle of double-blinded study, PCE and MNPCE cells were counted. 1000 PCE and MNPCE cell were counted for each mice, calculated the ratio of micronuclei over the 1000 cells. The ratio of micronuclei represents the dose-effectiveness relation. The data was analyzed with statistical t test.
# [6] = cited from earlier work; remark: listed apart in the source
# [7] = system: rats' extra-corporeal uterine smooth muscle; assay: Contraction of normal rats' extra-corporeal uterine smooth muscle; parameters: species or system Wister rats; settings: 7 μg/ml
# Method: a) Put 5.4g extract of CCP in 100 ml of the Locke's solution and mixed thoroughly. The drug concentration results in 54 mg/ml. Take 1 ml of this solution, put it into a homothermic flume with 9 ml of the Locke's solution. The drug concentration from this mixture contains 5.4 mg/ml. Likewise, put 2.7 g extract of CCP in 100 ml of the Locke's solution and mixed thoroughly. Take 1 ml of this mixture, combine it with 9 ml of Locke's solution and the drug concentration will result in 2.7 mg/ml. Mix up 100 ml of the Locke's solution with a 1.9 g CCP's extract. Take 1 ml of this mixture, combine it with 9 ml of the Locke's solution and the drug concentration will result in 1.9 mg/ml. Mix 200 ml of the Locke's solution with 2.6 of CCP's extract, the concentration will result in 13 mg/ml. Take 1 ml of this mixture, combine it with 9 ml of the Locke's solution which results in a drug concentration of 1.3 mg/ml. Mix 200 ml or 300 ml of the Locke's solution with 1.8 CCP's resulting in a drug concentration of 9 mg/ml and 6 mg/ml respectively. Take 1 ml of this mixture into homothermic flume with 9 ml of the Locke's solution. The result is a drug concentration containing 0.9 mg/ml and 0.6 mg/ml respectively
# 9.0 of NaCL, 0.42 of KCL, 0.24 of CaCL2, 0.2 of NaHCO3 and 1.0 g of glucose. Mixed with distilled water until obtaining 1000 ml. PH is about 7.
# as §1
# Animals' Grouping: randomly divide the Wister female rats' extracorporeal uteruses into a normal saline control group (NSG) and a CCP group (CCPG). […]
# [8] = cyclophosphamide 40 mg/Kg, per 1000 cells
compound,measurement,setting,value
CC[C@H](C)[C@@H]1NC(=O)[C@H](Cc2ccc(O)cc2)NC(=O)[C@@H](N)CSSC[C@@H](C(=O)N2CCC[C@H]2C(=O)N[C@@H](CC(C)C)C(=O)NCC(N)=O)NC(=O)[C@H](CC(N)=O)NC(=O)[C@H](CCC(N)=O)NC1=O [Oxytocin],contraction frequency,[1]; after adm. 1-10 mins,11.7 ± 1.5
same,contraction frequency,[1]; after adm. 10-20 mins,11.6 ± 1.9
same,contraction frequency,[1]; after adm. 20-30 mins,10.9 ± 1.17
same,contraction frequency,[1]; before adm.,7.0 ± 1.3
same,contraction activity,[1]; after adm. 1-10 mins,118.8 ± 77.6%
same,"contraction activity, controlling %",[1]; after adm. 1-10 mins,−108.8%
same,"contraction frequency, controlling %",[1]; after adm. 1-10 mins,−67.1%
same,contraction range,[1]; after adm. 1-10 mins,9.7 ± 5.0 mm
same,"contraction range, controlling %",[1]; after adm. 1-10 mins,−21.3%
same,contraction activity,[1]; after adm. 10-20 mins,129.6 ± 97.3%
same,"contraction activity, controlling %",[1]; after adm. 10-20 mins,−127.8%
same,"contraction frequency, controlling %",[1]; after adm. 10-20 mins,−65.7%
same,contraction range,[1]; after adm. 10-20 mins,10.4 ± 5.7 mm
same,"contraction range, controlling %",[1]; after adm. 10-20 mins,−30.0%
same,contraction activity,[1]; after adm. 20-30 mins,111.2 ± 86.5%
same,"contraction activity, controlling %",[1]; after adm. 20-30 mins,−95.4%
same,"contraction frequency, controlling %",[1]; after adm. 20-30 mins,−55.7%
same,contraction range,[1]; after adm. 20-30 mins,9.7 ± 6.1 mm
same,"contraction range, controlling %",[1]; after adm. 20-30 mins,−21.3%
same,contraction activity,[1]; before adm.,56.9 ± 21.6%
same,contraction range,[1]; before adm.,8.0 ± 2.6 mm
same,"contraction range, controlling %",[1]; column Before adm.,8.8%
same,contraction activity,[1]; column Oxytocin,84.7 ± 22.0%
same,"contraction activity, controlling %",[1]; column Oxytocin,−48.9%
same,"contraction frequency, controlling %",[1]; column Oxytocin,−91.4%
same,contraction range,[1]; column Oxytocin,7.3 ± 3.2 mm
"COc1ccc(C(C)=O)c(O)c1 [Paeonol, Ethanone, 1-(2-hydroxy-4-methoxyphenyl)-]",controlling consistency,golden staphylococcus,500 µg/mL
same,controlling consistency,streptococcus faecalis,500 µg/mL
same,controlling consistency,coliform,200 µg/mL
same,controlling consistency,bacillus subtilis,200 µg/mL
same,controlling consistency,tinea germ between toes,250 µg/mL
same,duration of reduced pressure,[2],10 to 12 min
same,reduce pressure,[2],41-61%
same,validity rate,"[3]; 261 cases with rheumatoid arthritis, lumbago, bellyache, postoperative & cancer pain",92%
same,validity rate,"[3]; inject 50˜100 mg, rheumatism, other pains, eczema, dermatitis",83%
same,solubility in water,[4],resolve a little in water
OCCN(CCO)c1nc(N2CCCCC2)c2nc(N(CCO)CCO)nc(N3CCCCC3)c2n1 [Persantine],"Whole Blood Ratio Viscosity, high shear",[5],12.10 ± 1.90
same,"Whole Blood Ratio Viscosity, low shear",[5],16.12 ± 6.92
"O=P1(N(CCCl)CCCl)NCCCO1 (stereo not shown) [Positive control, cyclophosphamide]",number of Micronuclei,"mice bone marrow cells; cyclophosphamide 40 mg/Kg abdominal cavity injection, 6000 PCE cells",381
same,"incidence of micronuclei, Range",mice bone marrow cells; [8],43-98
same,"incidence of micronuclei, X ± SD",mice bone marrow cells; [8],63.5000 ± 20.6373
same,incidence of micronucleus,mice bone marrow cells; cyclophosphamide injection 40 mg/Kg,obviously higher than the negative control
"N#C[C@H](O[C@@H]1O[C@H](CO[C@@H]2O[C@H](CO)[C@@H](O)[C@H](O)[C@H]2O)[C@@H](O)[C@H](O)[C@H]1O)c1ccccc1 [Amygdalin, Benzeneacetonitrile, α-[(6-O-β-D-glucopyranosyl-β-D-glucopyranosyl)oxy]-, (R)—]",volume in which 1 g resolves,[6]; boiling ethanol,11 mL
same,volume in which 1 g resolves,[6]; ethanol,900 mL
same,volume in which 1 g resolves,[6]; water,12 mL
Pregnendione [Progestin],contraction frequency of rats' uterine smooth muscle,[7],can control contraction frequency
same,contraction frequency,[7]; after adm. 0-20 mins,6.3 ± 2.5 time/10 mins
same,contraction activity,[7]; after adm. 1-10 mins,47.2 ± 22.9%
same,"contraction activity, controlling %",[7]; after adm. 1-10 mins,31.9%
same,contraction frequency,[7]; after adm. 1-10 mins,6.1 ± 2.0 time/10 mins
same,"contraction frequency, controlling percentage",[7]; after adm. 1-10 mins,23.8%
same,contraction range,[7]; after adm. 1-10 mins,7.4 ± 2.3 mm
same,"contraction range, controlling percent",[7]; after adm. 1-10 mins,14.0%
same,contraction activity,[7]; after adm. 10-20 mins,46.3 ± 27.9%
same,"contraction activity, controlling %",[7]; after adm. 10-20 mins,33.2%
same,"contraction frequency, controlling percentage",[7]; after adm. 10-20 mins,21.3%
same,contraction range,[7]; after adm. 10-20 mins,7.0 ± 2.6 mm
same,"contraction range, controlling percent",[7]; after adm. 10-20 mins,18.6%
same,contraction activity,[7]; after adm. 20-30 mins,35.2 ± 22.5%
same,"contraction activity, controlling %",[7]; after adm. 20-30 mins,49.2%
same,contraction frequency,[7]; after adm. 20-30 mins,5.0 ± 2.4 time/10 mins
same,"contraction frequency, controlling percentage",[7]; after adm. 20-30 mins,37.5%
same,contraction range,[7]; after adm. 20-30 mins,7.0 ± 2.8 mm
same,"contraction range, controlling percent",[7]; after adm. 20-30 mins,18.6%
same,contraction activity,[7]; before adm.,69.3 ± 20.9%
same,contraction frequency,[7]; before adm.,8.0 ± 0.8 time/10 mins
same,contraction range,[7]; before adm.,8.6 ± 2.2 mm
